Like-named read-outs stand apart in the source and are kept apart here.
Target: T1, human β3 adrenergic receptor (Homo sapiens, UniProt P13945)
T1 construct: expressed in transfected cells; host or cells: Chinese hamster ovary (CHO) cells, stably transfected
Test: Functional assay: cAMP production (LANCE TR-FRET) in CHO cells stably transfected with cloned β3 adrenergic receptor
Assay type: cell-based
Summary of the method: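 Agonist-stimulated cAMP in CHO cells stably expressing human β3 receptor, 6,000 cells per well in HBSS/HEPES/0.1% BSA with 0.6 mM IBMX, 30 min at room temperature. LANCE TR-FRET readout converted to cAMP via standard curve; maximal stimulation defined with isoproterenol.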

[1] = Table 4, human β3 functional activity, read-out: Human β Binding
[2] = Table 7, β3AR-cAMP, read-out: Human β3 Functional
[3] = Table 5, read-out: Human β3 Functional
[4] = human β3 functional activity, shown as ranges, Table 13, read-out: Human β3 Functional
[5] = given as a range, cAMP, CHO cells, read-out: human β3 functional activity

T1 sequence (P13945 whole entry): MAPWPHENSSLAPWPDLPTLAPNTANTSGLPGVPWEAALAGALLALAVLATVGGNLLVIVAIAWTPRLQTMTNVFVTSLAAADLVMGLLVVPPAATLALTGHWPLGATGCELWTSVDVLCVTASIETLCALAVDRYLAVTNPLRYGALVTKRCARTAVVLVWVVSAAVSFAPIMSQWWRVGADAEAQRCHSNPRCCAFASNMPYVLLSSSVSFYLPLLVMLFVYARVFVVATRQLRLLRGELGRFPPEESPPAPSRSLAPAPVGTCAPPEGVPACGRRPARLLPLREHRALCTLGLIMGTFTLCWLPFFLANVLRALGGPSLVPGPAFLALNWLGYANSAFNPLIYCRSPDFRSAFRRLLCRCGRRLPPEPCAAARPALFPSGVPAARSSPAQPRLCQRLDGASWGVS

Structure (SMILES) | EC50 [1] [nM] | EC50 [3] [nM] | also measured
O=C(CN1CCOC1=O)Nc1ccc(C[C@@H]2CC[C@H]([C@H](O)c3ccccc3)N2)cc1 [Example 90] | 11 to 100 |  | 
O=S(=O)(Nc1ccc(C[C@@H]2CC[C@H]([C@H](O)c3ccccc3)N2)cc1)c1ccc(-n2cccn2)cc1 [Example 240] |  |  | EC50 [2]: 101 to 1000 nM
O=S(=O)(Nc1ccc(C[C@@H]2CC[C@H]([C@H](O)c3ccccc3)N2)cc1)c1ccc(-c2cocn2)cc1 [Example 241] |  |  | EC50 [2]: 11 to 100 nM
Cc1nnc2n1C(C(=O)Nc1ccc(C[C@@H]3CC[C@H]([C@H](O)c4ccccc4)N3)cc1)CC2 (single isomer, unassigned) [Example 126] |  | 11 to 100 | 
O=C(Nc1ccc(C[C@@H]2CC[C@H]([C@H](O)c3ccccc3)N2)cc1)C1CCc2ccc(=O)[nH]c21 (single isomer, unassigned) [Example 134] |  | 101 to 1000 | 
O=S(=O)(Cc1cccnc1)Nc1ccc(C[C@@H]2CC[C@H]([C@H](O)c3ccccc3)N2)cc1 [Example 249] |  |  | EC50 [2]: 1000 to 3000 nM
O=C(Nc1ccc(C[C@@H]2CC[C@H]([C@H](O)c3ccccc3)N2)cc1)C1CCCN1c1nccs1 (stereo partly drawn) [Example 41] | 1 to 10 |  | 
O=C(Nc1ccc(C[C@@H]2CC[C@H]([C@H](O)c3ccccc3)N2)cc1)C1CCc2cccnc21 (single isomer, unassigned) [Example 132] |  | < 1 | 
CC(C(=O)Nc1ccc(CC2CCC(C(O)c3cccc(Cl)c3)N2)cc1)c1cscn1 (single isomer, unassigned) [Example 303] |  |  | EC50 [4]: 11 to 100 nM
O=C(O)c1nc2c(s1)CCC2C(=O)Nc1ccc(C[C@@H]2CC[C@H]([C@H](O)c3ccccc3)N2)cc1 (single isomer, unassigned) [Example 143] |  | 11 to 100 | 
Nc1nc2c(s1)CCC2C(=O)Nc1ccc(CC2CCC(C(O)c3cccc(Cl)c3)N2)cc1 (single isomer, unassigned) [Example 294] |  |  | EC50 [4]: 11 to 100 nM
O=S(=O)(Nc1ccc(C[C@@H]2CC[C@H]([C@H](O)c3ccccc3)N2)cc1)c1ccc(-c2nc(-c3ccc(C(F)(F)F)cc3)cs2)cc1 [Example 233, N-[4-({(2S,5R)-5-[(R)-hydroxy(phenyl)methyl]pyrrolidin-2-yl}methyl)phenyl]-4-{4-[4-(trifluoromethyl)phenyl]-1,3-thiazol-2-yl}benzenesulfonamide] |  |  | EC50 [5]: 1 to 10 nM
Cc1cc(C)nc(CNC(=O)Nc2ccc(C[C@@H]3CC[C@H]([C@H](O)c4ccccc4)N3)cc2)n1 [Example 256] |  |  | EC50 (Table 8, read-out: Human β3 Functional): 11 to 100 nM
O=C(Cn1nc(Cc2ccccc2)c2ccccc2c1=O)Nc1ccc(C[C@@H]2CC[C@H]([C@H](O)c3ccccc3)N2)cc1 [Example 18] | 1 to 10 |  | 
O=C(CN1CCCOC1=O)Nc1ccc(C[C@@H]2CC[C@H]([C@H](O)c3ccccc3)N2)cc1 [Example 98] | 1 to 10 |  | 
O=C(Nc1ccc(C[C@@H]2CC[C@H]([C@H](O)c3ccccc3)N2)cc1)C1CCCn2nnnc21 (single isomer, unassigned) [Example 152] |  | 11 to 100 | 
Cc1n[nH]c2c1CCC2C(=O)Nc1ccc(C[C@@H]2CC[C@H]([C@H](O)c3ccccc3)N2)cc1 (single isomer, unassigned) [Example 138] |  | 11 to 100 | 

Structure (SMILES) | EC50 [1] [nM] | EC50 [3] [nM] | also measured
O=C(Cn1cnc2sccc2c1=O)Nc1ccc(C[C@@H]2CC[C@H]([C@H](O)c3ccccc3)N2)cc1 [Example 55] | 1 to 10 |  | 
O=C(Cn1c(=O)ncc2ccccc21)Nc1ccc(C[C@@H]2CC[C@H]([C@H](O)c3ccccc3)N2)cc1 [Example 17] | 1 to 10 |  | 
O=C(Nc1ccc(C[C@@H]2CC[C@H]([C@H](O)c3ccccc3)N2)cc1)C1CCc2cccnc21 (single isomer, unassigned) [Example 133] |  | < 1 | 
Cn1nnnc1CC(=O)Nc1ccc(C[C@@H]2CC[C@H]([C@H](O)c3ccccc3)N2)cc1 [Example 76] | 11 to 100 |  | 
CC(C(=O)Nc1ccc(C[C@@H]2CC[C@H]([C@H](O)c3ccccc3)N2)cc1)n1cccnc1=O (single isomer, unassigned) [Example 160] |  | 1 to 10 | 
O=C(Nc1ccc(C[C@@H]2CC[C@H]([C@H](O)c3ccccc3)N2)cc1)C1CCCn2ccnc21 (single isomer, unassigned) [Example 155] |  | 101 to 1000 | 
O=C(Cn1nc(Cl)ccc1=O)Nc1ccc(C[C@@H]2CC[C@H]([C@H](O)c3ccccc3)N2)cc1 [Example 51] | 1 to 10 |  | 
Cc1nc(C)c(CC(=O)Nc2ccc(C[C@@H]3CC[C@H]([C@H](O)c4ccccc4)N3)cc2)s1 [Example 10] | 1 to 10 |  | 
O=C(Nc1ccc(C[C@@H]2CC[C@H]([C@H](O)c3ccccc3)N2)cc1)C1CCc2sc(F)nc21 (single isomer, unassigned) [Example 146] |  | < 1 | 
Nc1nc2c(s1)CCC2C(=O)Nc1ccc(C[C@@H]2CC[C@H]([C@H](O)c3ccccc3)N2)cc1 (single isomer, unassigned) [Example 4] |  |  | EC50 [5]: < 1 nM
O=C(Nc1ccc(C[C@@H]2CC[C@H]([C@H](O)c3ccccc3)N2)cc1)C1CCc2ccc(=O)[nH]c21 (single isomer, unassigned) [Example 135] |  | 101 to 1000 | 
C[C@H](NC(=O)c1ccccc1F)C(=O)Nc1ccc(C[C@@H]2CC[C@H]([C@H](O)c3ccccc3)N2)cc1 [Example 263, 2-Fluoro-N-((1S)-2-{[4-({(2S,5R)-5-[(R)-hydroxy(phenyl)methyl]pyrrolidin-2-yl}methyl)phenyl]amino}-1-methyl-2-oxoethyl)benzamide] |  |  | EC50 [5]: < 1 nM
Cc1cn(CC(=O)Nc2ccc(C[C@@H]3CC[C@H]([C@H](O)c4ccccc4)N3)cc2)nn1 [Example 79] | 1 to 10 |  | 
O=C(Cc1ccccn1)Nc1ccc(C[C@@H]2CC[C@H]([C@H](O)c3ccccc3)N2)cc1 [Example 43] | 11 to 100 |  | 
COc1cccc(N2CCCC2C(=O)Nc2ccc(C[C@@H]3CC[C@H]([C@H](O)c4ccccc4)N3)cc2)c1 (stereo partly drawn) [Example 36] | 1 to 10 |  | 
O=C(CN1CCSC1=O)Nc1ccc(C[C@@H]2CC[C@H]([C@H](O)c3ccccc3)N2)cc1 [Example 91] | 1 to 10 |  | 

The next lines start with results.

EC50 [1] [nM] | EC50 [3] [nM] | Structure (SMILES) | also measured
 | 11 to 100 | COc1ncncc1C(C)C(=O)Nc1ccc(C[C@@H]2CC[C@H]([C@H](O)c3ccccc3)N2)cc1 (single isomer, unassigned) [Example 213] | 
 | < 1 | Nc1nc(C(CCF)C(=O)Nc2ccc(CC3CCC(C(O)c4ccccc4)N3)cc2)cs1 (stereo not drawn) [Example 222] | 
 | 11 to 100 | CC(Oc1cccnn1)C(=O)Nc1ccc(C[C@@H]2CC[C@H]([C@H](O)c3ccccc3)N2)cc1 (single isomer, unassigned) [Example 215] | 
 | 1 to 10 | CC(C(=O)Nc1ccc(C[C@@H]2CC[C@H]([C@H](O)c3ccccc3)N2)cc1)n1cc(C(N)=O)nn1 (single isomer, unassigned) [Example 192] | 
 | 101 to 1000 | CC(C(=O)Nc1ccc(CC2CCC(C(O)c3ccccc3)N2)cc1)c1ccn(C)n1 (single isomer, unassigned) [Example 186] | 
 | 1 to 10 | CC(C(=O)Nc1ccc(C[C@@H]2CC[C@H]([C@H](O)c3ccccc3)N2)cc1)n1ccccc1=O (single isomer, unassigned) [Example 202] | 
 | 1 to 10 | COC(=O)c1cn(C(C)C(=O)Nc2ccc(C[C@@H]3CC[C@H]([C@H](O)c4ccccc4)N3)cc2)nn1 (single isomer, unassigned) [Example 188] | 
 | 1 to 10 | Cc1ccc(=O)n(C(C)C(=O)Nc2ccc(C[C@@H]3CC[C@H]([C@H](O)c4ccccc4)N3)cc2)n1 (single isomer, unassigned) [Example 165] | 
 | 1 to 10 | CC(C(=O)Nc1ccc(C[C@@H]2CC[C@H]([C@H](O)c3ccccc3)N2)cc1)n1nccn1 (single isomer, unassigned) [Example 178] | 

From patent publication US8399480B2, “Hydroxymethyl pyrrolidines as beta 3 adrenergic receptor agonists” (Merck Sharp & Dohme Corp., priority 2008, dated 2013)
